Results on 12 molecules are retold here after ChEMBL document CHEMBL4402538, “Mycobacterial tryptophan biosynthesis: A promising target for tuberculosis drug development?” (Bioorg Med Chem Lett, 2019).

Data set [1] deals with Mycobacterium tuberculosis. Put plainly: Antimycobacterial activity against Mycobacterium tuberculosis H37Rv infected in C57BL/6 mouse assessed as reduction in colony forming unit at 350 mg/kg, po administered for 8 consecutive days starting from day 1 post infection relative to control. In kind it is functional.
A short description of data set [2]: Intrinsic clearance in mouse liver microsomes incubated for 30 mins and measured up to 30 mins by LC-MS/MS analysis. The class given is ADME, Microsome. To be noted: 0.5 h.
For data set [3], the system named is Mycobacterium tuberculosis. Briefly: Antitubercular activity against Mycobacterium tuberculosis H37Rv. In kind it is functional.
Data set [4] can be described thus: Cytotoxicity against human HepG2 cells after 48 hrs by CellTiter Glo assay. In kind it is cell-based. In general terms: In ATP-based viability assays light output follows the ATP content of the culture.
The nature of data set [5]: Intrinsic clearance in mouse liver microsomes at 1 uM in presence of NADPH measured up to 60 mins by LC-MS/MS analysis. The class given is ADME, Microsome. To be noted: read-out: CLH. Background: Liver microsomes are vesicles of endoplasmic reticulum, rich in cytochrome P450 enzymes.
Data set [6] deals with Mycobacterium tuberculosis. Briefly: Antimycobacterial activity against wild-type Mycobacterium tuberculosis H37Rv incubated for 2 weeks. The class given is functional. The note with it: 336 h.
Data set [7] has as its system Mycobacterium tuberculosis. Put plainly: Antimycobacterial activity against pan-sensitive Mycobacterium tuberculosis CI-11 incubated for 2 weeks. The class given is functional. The note with it: CI-11, 336 h.
The subject of data set [8] is Mycobacterium tuberculosis. Put plainly: Antimycobacterial activity against pan-sensitive Mycobacterium tuberculosis AS2 incubated for 2 weeks. The class given is functional. To be noted: AS2, 336 h.
The test system of data set [9] is Mycobacterium tuberculosis. Briefly: Antimycobacterial activity against wild-type Mycobacterium tuberculosis H37Rv infected in mouse J774 cells assessed as reduction in bacterial growth incubated for 3 days relative to control. The class given is functional.
The test system of data set [10] is Mycobacterium tuberculosis. Briefly: Antimycobacterial activity against pan-sensitive Mycobacterium tuberculosis CI-4 incubated for 2 weeks. In kind it is functional. To be noted: CI-4, 336 h.
Data set [11] in a line: Cytotoxicity against human HepG2 cells. The class given is cell-based.
In data set [12] the test system is Mycobacterium tuberculosis. Briefly: Antimycobacterial activity against pan-sensitive Mycobacterium tuberculosis CDC1551 incubated for 2 weeks. The note with it: CDC1551, 336 h. The class given is functional.
Data set [13] concerns Mycobacterium tuberculosis. Put plainly: Antimycobacterial activity against pan-sensitive Mycobacterium tuberculosis HN-878 incubated for 2 weeks. The class given is functional. The note with it: HN-878, 336 h.
Another data set relates to Mycobacterium marinum. Briefly: Antimycobacterial activity against Mycobacterium marinum infected in zebra fish embryos assessed as reduction in bacterial growth at 15 to 30 uM incubated for 5 days relative to control. In kind it is functional.
The subject of data set [14] is Mycobacterium tuberculosis. Put plainly: Antimycobacterial activity against pan-sensitive Mycobacterium tuberculosis CI-5 incubated for 2 weeks. In kind it is functional. To be noted: CI-5, 336 h.
Data set [15] deals with Mycobacterium tuberculosis. Briefly: Antimycobacterial activity against pan-sensitive Mycobacterium tuberculosis AS4 incubated for 2 weeks. The note with it: AS4, 336 h. In kind it is functional.
Data set [16] can be described thus: Oral bioavailability in CD-1 mouse at 100 mg/kg measured up to 24 hrs. In kind it is ADME, organism-based. To be noted: in vivo.
A short description of data set [17]: Cytotoxicity against human HepG2 cells after 24 hrs by CellTiter 96 AQueous One Solution Cell Proliferation assay. In kind it is cell-based.
Data set [18] concerns Mycobacterium tuberculosis. Briefly: Antitubercular activity against Mycobacterium tuberculosis H37Rv ATCC 27294 after 10 days. In kind it is functional. To be noted: H37Rv ATCC 27294, 240 h.
For data set [19], the system named is Mycobacterium tuberculosis. Put plainly: Antitubercular activity against Mycobacterium tuberculosis H37Rv infected in BALB/c mouse assessed as reduction in bacterial load in infected mouse spleen at 100 mg/kg, po administered 6 days per week for 4 weeks relative to control. The class given is functional.
The subject of data set [20] is Mycobacterium tuberculosis. Put plainly: Antitubercular activity against Mycobacterium tuberculosis infected in mouse assessed as reduction in bacterial load in infected mouse spleen at 200 mg/kg administered 8 days post infection and measured at 2 week relative to control. The class given is functional.
The subject of data set [21] is Mycobacterium tuberculosis. Put plainly: Antimycobacterial activity against Mycobacterium tuberculosis in absence of tryptophan by Alamar Blue assay. The class given is functional. In general terms: The colour change of resazurin is a common sign of viable cells or microbes.
Data set [22] concerns Mycobacterium tuberculosis. Put plainly: Antimycobacterial activity against Mycobacterium tuberculosis H37Rv in presence of tryptophan after 14 days by broth microdilution method. The class given is functional. To be noted: 336 h.
Data set [23] is described as follows: Inhibition of Mycobacterium tuberculosis Anthranilate phosphoribosyltransferase expressed in Escherichia coli BL21(DE3) pRIL cells using PRPP as substrate in presence of PRAI-InGPS by fluorescence-based assay.
For data set [24], the system named is Mycobacterium tuberculosis H37Rv. Briefly: Inhibition of Tryptophan synthase alpha in Mycobacterium tuberculosis H37Rv assessed as bactericidal activity incubated for 4 weeks by agar dilution method.

Molecules are shown by their SMILES. Values after ≈ are worked out from the molar mass of the structure shown. A value given as a limit tells only on which side of the number the result lay.

As to `O=S1(=O)C[C@H](O)[C@@H](N2CCN(c3ccc(F)cc3Cl)CC2)C1`, in data set [1], the “log(activity)” value is listed as 1.4. The CLH in data set [2] is less than 0.5 mL/min/g. In addition, the MIC in data set [3] came to 2.25 µM (≈ 0.785 µg/mL). Further, the CC50 (commonly the concentration giving 50% cytotoxicity) at 48 h in data set [4] was greater than 100 µM.
As to `N#C[C@@H]1N[C@@H](CO)[C@H]1c1ccc(-c2ccccc2F)cc1`, the microsomal CLint at 1 µM in data set [5] came out at 336 µL/min/mg. The MIC90 (in general, the lowest concentration that inhibits either 90% of growth or 90% of the strains tested, depending on the study) in data set [6] came to 3 µM (≈ 0.847 µg/mL); in [7] it was 1.6 µM (≈ 0.452 µg/mL); in data set [8] it was 3 µM (≈ 0.847 µg/mL); in data set [10] it was 1.6 µM (≈ 0.452 µg/mL); in data set [12] it was 3 µM (≈ 0.847 µg/mL); in data set [13] it was 3 µM (≈ 0.847 µg/mL). For the same molecule, the MIC90 in data set [14] and in data set [15] was 3 µM (≈ 0.847 µg/mL) throughout. Also, the “fold change (FC)” value in data set [9] is given as 8. In data set [11], this molecule yielded a CC50 greater than 100 µM. In addition, the “log(activity)” value in the data set on Mycobacterium marinum amounted to 1.5.
In turn, `O=S1(=O)C[C@H](O)[C@@H](N2CCN(c3ccccc3Cl)CC2)C1` displayed a CLH in data set [2] of 15.7 mL/min/g. This molecule returned a cytotoxic concentration (CC50) at 48 h in data set [4] greater than 50 µM.
Take `O=C(O)CCc1c[nH]c2ccccc12` [INDOLYLPROPIONIC ACID]: the bioavailability (in general, dose-corrected exposure relative to a reference, in per cent) in data set [16] was in the range of 30 to 33%. This molecule also returned a CC50 at 24 h in data set [17] greater than 1000 µM. The MIC50 (commonly the lowest concentration that inhibits either 50% of growth or 50% of the strains tested, depending on the study) in [18] was found to be 68 µM (≈ 12.9 µg/mL). Moreover, the “fold change (FC)” value in [19] stood at 7.
Take `Nc1cccc(F)c1C(=O)O`: the “fold change (FC)” value in [20] turned out to be 10. For the same molecule, in [21], the MIC was 5 µM (≈ 0.776 µg/mL).
`O=S1(=O)C[C@H](O)[C@@H](N2CCC(c3ccccc3Cl)CC2)C1` had a CLH in data set [2] of 73.7 mL/min/g. The molecule further displayed an MIC in data set [3] of 0.5 µM (≈ 0.165 µg/mL). The molecule further came in with a half-maximal cytotoxic concentration (CC50) at 48 h in data set [4] greater than 100 µM.
`Nc1ccc(F)cc1C(=O)O` registered an MIC in data set [21] of 5 µM (≈ 0.776 µg/mL).
Turning to `CNS(=O)(=O)c1ccc2c(c1)CCN2C(=O)c1ccccc1F`, the CLH in data set [2] stood at 39.5 mL/min/g. For the same molecule, the 50% cytotoxic concentration (CC50) at 48 h in data set [4] was greater than 100 µM.
For `Cc1cccc(NC(=O)COC(=O)CCc2c[nH]c3ccccc23)c1`, in data set [22], the MIC90 was less than 64 µM.
On to `O=C(O)c1ccccc1Nc1ccccc1C(=O)O`, for which the Ki (as a rule, a measure of affinity in units of concentration, obtained from inhibition or displacement) in data set [23] is 1.5 µM.
As to `CNS(=O)(=O)c1ccc2c(c1)CCN2C(=O)c1ccc(C)s1`, in [2], the CLH is 27.1 mL/min/g. The molecule also had a half-maximal cytotoxic concentration (CC50) at 48 h in [4] greater than 100 µM.
For the molecule `NC(=O)c1ccc(CNC(=O)c2cc(-c3cccc(Cl)c3)on2)cc1`, the MIC in [24] was 6 µg/mL (≈ 16.9 µM).
